Test results from PubChem BioAssay AID248 (DTP/NCI, 2004).
Toxic doses and inconclusive results are not listed. Rule as the data show it: active = T/C of 150% or more; inactive = T/C below 125%.

Test system: L1210 leukemia ip in BDF1 mice, survival T/C
Test: NCI In Vivo Anticancer Drug Screen. Data for tumor model L1210 Leukemia (intraperitoneal) in B6D2F1 (BDF1) mice
Settings: endpoint: mean survival time, higher = longer survival
Summary of the method: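 Transplantable tumor model; survival measured in treated vs vehicle control mice. Value = treated/control.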

[1] = dose: 100.0 mg/kg/injection, schedule: Q04DX003 (ip), vehicle: saline
[2] = dose: 200.0 mg/kg/injection, schedule: Q04DX003 (ip), vehicle: saline
[3] = dose: 400.0 mg/kg/injection, schedule: Q04DX003 (ip), vehicle: saline
[4] = dose: 100.0 mg/kg/injection, schedule: Q01DX009 (ip), vehicle: Klucel (hydroxypropylcellulose) (HPC)
[5] = dose: 100.0 mg/kg/injection, schedule: Q04DX003 (ip), vehicle: Klucel (hydroxypropylcellulose) (HPC)
[6] = dose: 200.0 mg/kg/injection, schedule: Q01DX009 (ip), vehicle: Klucel (hydroxypropylcellulose) (HPC)
[7] = dose: 200.0 mg/kg/injection, schedule: Q04DX003 (ip), vehicle: Klucel (hydroxypropylcellulose) (HPC)
[8] = dose: 400.0 mg/kg/injection, schedule: Q01DX009 (ip), vehicle: Klucel (hydroxypropylcellulose) (HPC)
[9] = dose: 400.0 mg/kg/injection, schedule: Q04DX003 (ip), vehicle: Klucel (hydroxypropylcellulose) (HPC)
[10] = dose: 15.0 mg/kg/injection, schedule: Q01DX Z (ip), vehicle: saline
[11] = dose: 30.0 mg/kg/injection, schedule: Q01DX Z (ip), vehicle: saline
[12] = dose: 100.0 mg/kg/injection, schedule: Q04DX003 (ip), vehicle: saline with Tween-80
[13] = dose: 200.0 mg/kg/injection, schedule: Q04DX003 (ip), vehicle: saline with Tween-80
[14] = dose: 25.0 mg/kg/injection, schedule: Q04DX003 (ip), vehicle: Klucel (hydroxypropylcellulose) (HPC)
[15] = dose: 50.0 mg/kg/injection, schedule: Q04DX003 (ip), vehicle: Klucel (hydroxypropylcellulose) (HPC)
[16] = dose: 100.0 mg/kg/injection, schedule: Q01DX001 (ip), vehicle: saline
[17] = dose: 200.0 mg/kg/injection, schedule: Q01DX001 (ip), vehicle: saline
[18] = dose: 400.0 mg/kg/injection, schedule: Q01DX001 (ip), vehicle: saline
[19] = dose: 400.0 mg/kg/injection, schedule: Q04DX003 (ip), vehicle: saline with Tween-80

Measured: T/C

CCCCCCC(CCCCCC)(CCCCCC)B1OCCO1
inactive: dose: 100.0 mg/kg/injection, schedule: Q01DX009 (ip), vehicle: saline sonified 96 % of control | [1] 102 % of control | dose: 200.0 mg/kg/injection, schedule: Q01DX009 (ip), vehicle: saline sonified 106 % of control | [2] 102 % of control | dose: 400.0 mg/kg/injection, schedule: Q01DX009 (ip), vehicle: saline sonified 95 % of control | [3] 96 % of control

CC1C(=O)CC2C3(C)CCC2(C(C)C(=O)O)C(=O)C13 (centres undefined)
inactive: dose: 100.0 mg/kg/injection, schedule: Q01DX001 (ip), vehicle: Klucel (hydroxypropylcellulose) (HPC) 100 % of control | [4] 104 % of control | [5] 109 % of control | dose: 200.0 mg/kg/injection, schedule: Q01DX001 (ip), vehicle: Klucel (hydroxypropylcellulose) (HPC) 107 % of control | [6] 100 % of control | [7] 106 % of control | dose: 400.0 mg/kg/injection, schedule: Q01DX001 (ip), vehicle: Klucel (hydroxypropylcellulose) (HPC) 107 % of control | [8] 98 % of control | [9] 104 % of control

O=C(O)C1CC2C3CC(C(=O)O)C(C3)C2C1 (centres undefined)
inactive: dose: 100.0 mg/kg/injection, schedule: Q01DX009 (ip), vehicle: saline 96 % of control | [1] 102 % of control | dose: 200.0 mg/kg/injection, schedule: Q01DX009 (ip), vehicle: saline 101 % of control | [2] 100 % of control | dose: 400.0 mg/kg/injection, schedule: Q01DX009 (ip), vehicle: saline 101 % of control | [3] 96 % of control

NC1=NC(=S)CS1
inactive: dose: 75.0 mg/kg/injection, schedule: Q04DX003 (ip), vehicle: saline 97 % of control | dose: 150.0 mg/kg/injection, schedule: Q04DX003 (ip), vehicle: saline 94 % of control | dose: 300.0 mg/kg/injection, schedule: Q04DX003 (ip), vehicle: saline 92 % of control

CC(C)(C)C1=CC(=O)C(N=[N+]=[N-])=CC1=O
inactive: dose: 100.0 mg/kg/injection, schedule: Q04DX002 (ip), vehicle: saline 94 % of control | dose: 200.0 mg/kg/injection, schedule: Q04DX002 (ip), vehicle: saline 115 % of control

N/N=C(\N)NC(=O)c1ccccc1
inactive: [10] 103 % of control | [11] 97 % of control | dose: 60.0 mg/kg/injection, schedule: Q01DX Z (ip), vehicle: saline 94 % of control | dose: 120.0 mg/kg/injection, schedule: Q01DX Z (ip), vehicle: saline 105 % of control | dose: 240.0 mg/kg/injection, schedule: Q01DX Z (oral), vehicle: saline 108 % of control | dose: 480.0 mg/kg/injection, schedule: Q01DX Z (oral), vehicle: saline 95 % of control | dose: 960.0 mg/kg/injection, schedule: Q01DX Z (oral), vehicle: saline 103 % of control | dose: 1920.0 mg/kg/injection, schedule: Q01DX Z (oral), vehicle: saline 101 % of control

O=C(COc1ccc(Cl)c(Cl)c1)NCc1ccc[n+](Cc2ccc(Cl)cc2S(=O)(=O)F)c1
inactive: [12] 100 % of control | [13] 106 % of control

N#CCCCOc1ccc(Cl)cc1
inactive: [14] 104 % of control | [15] 104 % of control | [5] 98 % of control

C/C(=N/NC(=O)c1ccc(N)cc1)c1ccc(C)cc1
inactive: dose: 100.0 mg/kg/injection, schedule: Q04DX002 (ip), vehicle: Klucel (hydroxypropylcellulose) (HPC) 110 % of control | dose: 200.0 mg/kg/injection, schedule: Q04DX002 (ip), vehicle: Klucel (hydroxypropylcellulose) (HPC) 89 % of control

CC(C)NC(C)c1c[nH]c2ccccc12 (centres undefined)
inactive: dose: 12.5 mg/kg/injection, schedule: Q04DX003 (ip), vehicle: Klucel (hydroxypropylcellulose) (HPC) 101 % of control | [14] 97 % of control | [15] 103 % of control

CN(C)C(=S)N(C(=S)N(C)C)c1ccccc1
inactive: [16] 95 % of control | [17] 103 % of control | [18] 108 % of control

CCCCCC(CCCCC)c1ccccn1
inactive: [16] 94 % of control | [17] 103 % of control | [18] 100 % of control

CCC(c1ccc(OC)cc1)C(CC)c1ccc(O)c(CN2CCN(C)CC2)c1 (centres undefined)
inactive: [12] 94 % of control | [13] 94 % of control | [19] 94 % of control

Cc1cccc(Nc2cc(=S)nc(N)[nH]2)c1
inactive: dose: 100.0 mg/kg/injection, schedule: Q01DX Z (ip), vehicle: methylcellulose (MC) 98 % of control | dose: 200.0 mg/kg/injection, schedule: Q01DX Z (ip), vehicle: methylcellulose (MC) 106 % of control

Cc1ccc2c(c1)C(c1ccccc1)(c1ccccc1)N(c1ccccc1)S2(=O)=O
inactive: dose: 100.0 mg/kg/injection, schedule: Q01DX001 (ip), vehicle: carboxymethylcellulose (CMC) 94 % of control | dose: 200.0 mg/kg/injection, schedule: Q01DX001 (ip), vehicle: carboxymethylcellulose (CMC) 91 % of control | dose: 400.0 mg/kg/injection, schedule: Q01DX001 (ip), vehicle: carboxymethylcellulose (CMC) 100 % of control

O=C(O)C(=S)Cc1cc(=O)[nH]c(=S)[nH]1
inactive: [12] 102 % of control | [13] 97 % of control | [19] 92 % of control

CNc1ccc(C(=O)NC(CCC(=O)O)C(=O)O)cc1C(F)(F)F (centres undefined)
inactive: [4] 98 % of control | [6] 96 % of control | [8] 98 % of control

COc1ccc(Cl)cc1NC(=O)c1cccc(C(=O)Nc2cc(Cl)ccc2OC)c1
inactive: [4] 92 % of control | [5] 94 % of control | [6] 93 % of control | [7] 94 % of control | [8] 104 % of control | [9] 92 % of control

COc1cccc[n+]1CC(=O)c1ccccc1
inactive: dose: 50.0 mg/kg/injection, schedule: Q01DX009 (ip), vehicle: Klucel (hydroxypropylcellulose) (HPC) 95 % of control | [4] 98 % of control | [6] 95 % of control

CCCCCCCCCCCC(c1ccccc1)N(C)C (centres undefined)
inactive: dose: 50.0 mg/kg/injection, schedule: Q01DX001 (ip), vehicle: saline 98 % of control | [16] 93 % of control | [17] 93 % of control | [18] 93 % of control

c1ccc2c(C3=NCCN3)ccc(C3=NCCN3)c2c1
inactive: [10] 100 % of control | [11] 101 % of control

COc1cc(Cc2nccc3cc(OC)c(OC)cc23)c(C(C)=O)c(OC)c1
inactive: dose: 5.0 mg/kg/injection, schedule: Q01DX009 (ip), vehicle: saline 113 % of control | dose: 10.0 mg/kg/injection, schedule: Q01DX009 (ip), vehicle: saline 118 % of control | dose: 20.0 mg/kg/injection, schedule: Q01DX009 (ip), vehicle: saline 109 % of control | dose: 40.0 mg/kg/injection, schedule: Q01DX009 (ip), vehicle: saline 99 % of control | dose: 80.0 mg/kg/injection, schedule: Q01DX009 (ip), vehicle: saline 95 % of control
